In PubChem BioAssay (NCI):
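Cells were grown in 96-well plates and exposed to each compound for 48 hours at five concentrations; endpoints were interpolated linearly between bracketing concentrations, or set to the highest concentration if not reached. GI50: concentration for 50% inhibition of growth. At the TGI there is no net growth.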

Legend:
Test in all cases: DTP human tumour cell line panel, 48 h
[1] = test system: UACC-62 melanoma
[2] = test system: SNB-19 CNS
[3] = test system: RPMI-8226 leukemia
[4] = test system: PC-3 prostate
[5] = test system: A498 renal
[6] = test system: HL-60(TB) leukemia
[7] = test system: BT-549 breast
[8] = test system: OVCAR-3 ovarian
[9] = test system: SF-539 CNS
[10] = test system: NCI-H522 lung

Row | Compound | GI50 [1] [µM] | TGI [1] [µM] | GI50 [2] [µM] | TGI [2] [µM] | GI50 [3] [µM] | TGI [3] [µM] | GI50 [4] [µM] | TGI [4] [µM] | GI50 [5] [µM] | TGI [5] [µM] | GI50 [6] [µM] | TGI [6] [µM] | GI50 [7] [µM] | TGI [7] [µM] | GI50 [8] [µM] | TGI [8] [µM] | GI50 [9] [µM] | TGI [9] [µM] | GI50 [10] [µM] | TGI [10] [µM]
1 | NC(=O)C(=CNc1nc(-c2ccc(Cl)c(Cl)c2)cs1)C(N)=O | > 100 | > 100 | > 100 | > 100 | 40.4 | > 100 | > 100 | > 100 | > 100 | > 100 | 42.8 | > 100 | > 100 | > 100 | 41.6 | > 100 | 46.4 | > 100 | 11.8 | > 100
2 | COc1ccccc1/C=C/c1cnccn1 | – | > 10 | – | > 10 | – | > 10 | – | > 10 | – | > 10 | – | > 10 | – | > 10 | – | > 10 | – | > 10 | – | > 10
3 | CC(C)c1ccccc1S(=O)c1ccccc1C(C)(C)O (centres undefined) | – | > 100 | – | > 100 | – | > 100 | – | > 100 | – | 40.8 | – | > 100 | – | > 100 | – | > 100 | – | > 100 | – | > 100
4 | CCOC(=O)N1CCN(C(=O)c2ccc(C(F)(F)F)nc2Nc2cc(Cl)ccc2C)CC1 | 10 | 25.6 | > 100 | > 100 | 11.4 | 64.8 | 7.71 | > 100 | 21.1 | 56.4 | 12.1 | 38 | 19.2 | 73.2 | 8.85 | 47.2 | 33.7 | > 100 | 4.43 | 27.4
5 | COc1cc2c(cc1OC)C13CCN4CC5=CCOC6CC(=O)N2C1C6C5CC43O (centres undefined) | – | > 100 | – | > 100 | – | > 100 | – | > 100 | – | > 100 | – | > 100 | – | > 100 | – | > 100 | – | > 100 | – | > 100
6 | Cc1cc(NC(=O)c2ccc(C)c(Nc3nccc(-c4cccnc4)n3)c2)cc(-n2cnc(C)c2)c1 | 2.92 | 11 | 5.28 | 18.1 | 6.45 | 27.6 | 4.76 | 17.3 | 1.86 | 7.93 | 14.5 | > 50 | 0.159 | 9.98 | 1.87 | 4.83 | 2.09 | 9.27 | 4.89 | 15.3
7 | CN1CCc2c(Sc3ccc(C(=O)NO)cc3)c3ccccc3n2C1 | 1.62 | 3.65 | 2.12 | 6.79 | 1.36 | 11.1 | 1.63 | 4.01 | 0.185 | 2.44 | 2.95 | 8.09 | 2.39 | 6.19 | 2.16 | 6.74 | 1.42 | 3.11 | 1.14 | 2.62
8 | Cc1sc2nc(NCCc3c[nH]c4ccc(Cl)cc34)[nH]c(=O)c2c1C | 2.96 | 12.7 | 3.54 | 13.2 | 2.45 | 7.9 | 2.05 | 8.91 | 1.8 | 4.15 | 2.34 | 5.91 | 2.55 | 9.95 | 3.26 | 12.7 | 3.37 | 13.4 | 1.79 | 3.91
9 | Nc1nc(Nc2ccccc2)c2ncn(Cc3cc4c(cc3Br)OCO4)c2n1 | 0.0537 | 28.4 | 0.0686 | 22.3 | 0.0497 | > 52.7 | 0.0801 | 46.9 | 0.0546 | 29.7 | 0.0358 | 1.26 | 0.0511 | 2.33 | 0.0326 | 0.237 | 0.0394 | 0.51 | 0.0316 | 0.207
10 | CN(C)c1ccc2nc3ccc(=O)cc-3sc2c1 | 1.32 | 8.69 | 2.63 | > 100 | 0.199 | 53 | 0.0726 | > 100 | 11 | > 92.8 | 0.77 | 3.94 | 0.712 | > 100 | 0.598 | > 28.1 | 0.287 | – | 0.835 | 7.85
11 | COC(=O)[C@@H](NC(=O)[C@@H](OC)[C@@H]1Cc2cc3cc(OC4CC(OC5CC(O)C(O)C(C)O5)C(O)C(C)O4)c(C)c(O)c3c(O)c2C(=O)[C@H]1OC1CC(OC2CC(OC3CC(C)(O)C(O)C(C)O3)C(O)C(C)O2)C(O)C(C)O1)C(C)C (some centres undefined) | 0.0731 | 0.409 | 0.157 | > 32.5 | 0.0918 | 0.619 | 0.149 | > 32.5 | 0.0869 | 0.333 | 0.348 | > 32.5 | 0.184 | 2.63 | 0.165 | > 32.5 | 0.127 | 0.847 | 0.112 | 2.02
12 | COc1ccc(C2C(C#N)=C(N)OC3=C2COc2ccc(F)cc23)cc1OC (centres undefined) | 15.1 | 44.3 | 73.8 | > 100 | 15.8 | 52.6 | 23.2 | 93.6 | 28.3 | 59.1 | 34.2 | 70.8 | 28.9 | > 100 | 17.5 | 43.5 | 21.5 | 75.4 | 54.3 | > 100
13 | OCCCCC#Cc1ccccc1C#Cc1cccc(O)c1 | 13.3 | 26.9 | 15.5 | 32.8 | 20.7 | 53.7 | 16.9 | 38.1 | 18.5 | 39.4 | 19.4 | 41.9 | 16 | 42.1 | 20 | 44.1 | 17.5 | 35.8 | 14.3 | 28.9
14 | O=C(Nc1ccc(Cl)cc1F)c1cc(Br)ccc1O | 0.305 | 1.26 | 0.508 | > 100 | 0.43 | 2.19 | 1.83 | 8.53 | 0.23 | 0.709 | 0.919 | 3.77 | 0.685 | 3.01 | 0.604 | 14.2 | 0.804 | 7.29 | 0.481 | 9.23
